The text below walks through data of patent publication US11857601B2, “Pharmaceutical composition for cancer treatment comprising fusion protein including IL-2 protein and CD80 protein and anticancer drug” (GI INNOVATION, INC., priority 2020, dated 2024).

Test [1] relates to HCT116 cells. In words: Cancer cell killing, GI-101 and Pertuzumab, HCT116 with NK cells. To be noted: GI-101 0.4-100 nM, Pertuzumab 16.9 nM, 24 hours. In kind it is cell-based, human. An excerpt:
This experiment was to evaluate the effect of killing cancer cells by treating HCT116 cells (human colon cancer cells) with the test substance GI-101 alone or in combination with Pertuzumab substance in an in vitro environment.
HCT116 cells were purchased from the Korea cell line bank and cultured in McCoy's 5A medium (ATCC) containing 10% FBS (Gibco) and 1% antibiotic/antifungal agent (Gibco). For use in cancer cell killing test, the cells were harvested using trypsin (Gibco), and then suspended in McCoy's 5A medium, and then dead cells and debris were removed using Ficoll (GE Healthcare Life Sciences) solution. The cells suspended in McCoy's 5A medium were carefully layered on ficoll solution. […]
(§1) In order to identify the effect of killing the cells, a CytoTox Green reagent ([…]™ CytoTox Green, Satorius) that binds to the DNA of cells to be killed was prepared in 1 μl per 1 mL of RPMI1640 medium containing 5% human AB serum (Sigma). The prepared medium was used for dilution of the test substance, and the effect of killing the cells could be quantitatively identified by staining the cells to be killed when the test substance was co-cultured with cancer cell lines and PBMCs. […]

Test [2] has as its system 4T1 cells. As to the kind of experiment: mGI-101, anti-PD-L1 antibody and Docetaxel in 4T1 allotransplanted tumor model. The class given is in vivo, BALB/c mice. An excerpt: This experiment was to evaluate the anticancer efficacy according to administration of the test substance mGI-101 alone or in combination with Docetaxel (Selleck Chemicals, cat. no. S1148) and the anti-PD-L1 antibody (BioXcell, cat. no. BE0101) in a tumor model allotransplanted with 4T1 cells (mouse breast cancer cells) into BALB/c mice.
4T1 cells were purchased from ATCC (USA) and cultured in RPMI1640 medium (Gibco) containing 10% FBS (Gibco) and 1% antibiotic/antifungal agent (Gibco). The cultured cells were harvested using trypsin (Gibco), and then a cell suspension was prepare with PBS and stored on ice until injected into mice. In order to establish an allotransplanted tumor model, after identifying the location of the second mammary fat pad from the upper right of the ventral region of BALB/c female mice (8-week-old), 4T1 cell line prepared inside the mammary fat pad was injected at 4×10^4 cells/40 μl/head.
A certain period of time after cell inoculation of the tumor grafts of the mice, the tumor volume was measured for animals with no abnormalities in the health condition of the animals, and the subjects were selected so that the average of each group reached less than 70-100 mm^3, and the selected animals were assigned as evenly as possible based on tumor volume and body weight, each group including 10 animals.
Docetaxel was dissolved in 100% DMSO, and then the volume was adjusted with 5% of DMSO, 30% of PEG300, 5% of Tween 80, and 60% of distilled water for injection (DMSO PEG300: Tween 80: distilled water for injection=5%: 30%: 5%: 60% (v:v:v:v)) and prepared.
The Anti-PD-L1 antibody was prepared and administered using 1×PBS in consideration of dosage amount and volume. […]
The tumor volume before administration of each subject was set as the value measured at the time of grouping, and the anti-tumor efficacy was evaluated as compared with the vehicle control. […]

Test [3] deals with 4T1 cells. In words: mGI-101 and Abemaciclib in 4T1 allotransplanted tumor model. The class given is in vivo, BALB/c mice. To be noted: 11 mice per group. As for the experimental part:
4T1 cells were purchased from ATCC (USA) and cultured in RPMI1640 medium (Gibco) containing 10% FBS (Gibco) and 1% antibiotic/antifungal agent (Gibco). The cultured cells were harvested using trypsin (Gibco) and then suspended in PBS. In order to establish an allotransplanted tumor model, 1×10^5 of 4T1 cells were subcutaneously injected into the back of BALB/c female mice (8-week-old).
A certain period of time after cell inoculation of the tumor grafts of the mice, the tumor volume was measured for animals with no abnormalities in the health condition of the animals, and the mice were randomly selected and assigned, each group including 11 mice.
The death of the mouse, the type of general symptoms, the date of onset, and the severity of symptoms were observed once a day during the test period, and recorded for each subject.
The tumor volume before administration of each subject was set as the value measured at the time of grouping, and the anti-tumor efficacy was evaluated as compared with the vehicle control.
All statistical calculations were performed using Prism 8.0 (Graph Pad Software Inc, USA). The comparison of tumor volume measurements was made through two-way analysis of variance followed by Tukey's multiple comparison test. A p value of less than 0.05 was considered significant.

Test [4] concerns MDA-MB-231 cells. As to the kind of experiment: Cancer cell killing, GI-101 and Ribociclib, MDA-MB-231 with PBMCs. To be noted: GI-101 100 nM, Ribociclib 913 nM, 24 hours, compared with co-culturing only cancer cells and PBMCs. In kind it is cell-based, human.
Source text: This experiment was to evaluate the effect of killing cancer cells by treating MDA-MB-231 cells (human breast cancer cells) with the test substance GI-101 alone or in combination with Ribociclib substance in an in vitro environment.
MDA-MB-231 cells were purchased from the Korea cell line bank and cultured in RPMI1640 medium (Gibco) containing 10% FBS (Gibco) and 1% antibiotic/antifungal agent (Gibco). For use in cancer cell killing test, the cells were harvested using trypsin (Gibco), and then suspended in RPMI1640 medium, and then dead cells and debris were removed using Ficoll (GE Healthcare Life Sciences) solution. The cells suspended in RPMI1640 medium were carefully layered on ficoll solution. […]
as §1

Test [5] relates to CD8+ T cells and CD4+/FoxP3+ Treg cells. In words: Proliferation of CD8+ T cells and Treg cells in PBMCs (Exp. Ex. 10). The class given is cell-based, human. As for the experimental part:
Human PBMCs were purchased from Allcells (Lot #3014928, USA). […] CellTrace CFSE dye was used, which was reacted with the human PBMCs under a light-blocking condition at […] for 20 minutes. The cells were labeled with CFSE by being reacted with 1 μM CellTrace CFSE dye at 37° C. for 20 minutes. CFSE not bound to the cells was removed by being reacted for 5 minutes with a culture medium having a 5-fold volume of the staining reaction solution and then by being centrifuged at 1,300 rpm for 5 minutes. The CFSE-labeled PBMCs were resuspended in the culture medium (RPMI1640 medium containing 10% fetal bovine serum, 10 mM HEPES, 100 U/ml penicillin/streptomycin, 1 mM sodium pyruvate, 55 μM 2-mercaptoethanol, 1 mM non-essential amino acid, and 2 mM L-glutamine), and then added to a 96-well microplate at 1×10^5 cells per well.
The incubated cells were examined for their degree of proliferation by measuring, with FACS analysis using anti-human CD4-PE antibody (BioLegend, USA), anti-human CD8-PE/Cy7 antibody (BioLegend, USA), and anti-human FoxP3-APC antibody (BioLegend, USA), a proportion of CD8+ T cells that had not been labeled with CFSE.

Where [6] appears, read: 4T1, end of the test, 10 animals per group.

Regarding “Pertuzumab: Her2 inhibitor [reference compound]”, the “effect of killing cancer cells” value in test [1] is “effect of killing cancer cells was not shown”.
Turning to `CC(=O)O[C@@]12CO[C@@H]1C[C@H](O)[C@@]1(C)C(=O)[C@H](O)C3=C(C)[C@@H](OC(=O)[C@H](O)[C@@H](NC(=O)OC(C)(C)C)c4ccccc4)C[C@@](O)([C@@H](OC(=O)c4ccccc4)[C@H]21)C3(C)C` [Docetaxel], in test [2] (setting [6]), the “number of mice with tumor growth inhibition rate of 30% or more” value amounted to 5 mice and the “number of mice with tumor growth inhibition rate of 50% or more” value amounted to 1 mice. The “anticancer effect (tumor size) compared with the control” value in test [2] (day 14, Docetaxel 15 mg/kg, mGI-101 3 mg/kg, aPD-L1 10 mg/kg i.p. QW) is listed as “statistically significant anticancer effect”.
For `CCN1CCN(Cc2ccc(Nc3ncc(F)c(-c4cc(F)c5nc(C)n(C(C)C)c5c4)n3)nc2)CC1` [Abemaciclib, reference compound], in test [3], the “number of mice with tumor growth inhibition rate of 30% or more” value was 4 mice, the “number of mice with tumor growth inhibition rate of 50% or more” value came to 1 mice and the “number of mice with tumor growth inhibition rate of 80% or more” value turned out to be 1 mice.
With `CN(C)C(=O)c1cc2cnc(Nc3ccc(N4CCNCC4)cn3)nc2n1C1CCCC1` [Ribociclib, reference compound], the “effect of killing cancer cells” value in test [4] was “excellent effect of killing cancer cells”.
Consider “GI101C2: comparative fusion protein: Fc domain, linker, IL-2 variant (2M) (R38A, F42A); SEQ ID NO: 19”, for which the “proportion of CD8+ T cells” value in test [5] (anti-CD3ε 1 μg/ml, 7 days, compared with no stimulus, anti-CD3 antibody alone and GI101C1) is recorded as “significant increase”. The “proliferation of CD4+/FoxP3+ Treg cells” value in test [5] (compared with no stimulus and anti-CD3 antibody alone) is listed as “significant increase”.
